Where two headings read alike, the source gives them in different places.
Columns and labels:
[1] = system: patients with relapsed or refractory PTCL; details: cited from earlier work; for ORR / CR / DOR: relapsed/refractory PTCL; for ORR: brentuximab only anaplastic large cell lymphoma
Primary CLL cells = Primary CLL cells with IL-4/CD40L, immunoblotting and annexin V/PI viability; type: cell-based, human; details: for IL-4/CD40L induced Mcl-1 and Bcl-XL expression: 1 μM
Experimental: Combination studies were performed with 10 or 100 nM venetoclax or 300 and 1000 nM S63846. Cell viability was assessed by annexin V/PI using flow cytometry and changes in protein expression by immunoblotting.

Compound: O=C(/C=C/c1cccc(S(=O)(=O)Nc2ccccc2)c1)NO [Belinostat]
- Grade 3/4 AEs: Anemia ([1]; Table 1): Anemia: 11%
- Grade 3/4 AEs: Fatigue ([1]; Table 1): Fatigue: 5%
- Grade 3/4 AEs: Thrombocytopenia ([1]; Table 1): Thrombocytopenia: 7%
- Toxicities ≥ Grade 3: Anemia ([1]; r/r PTCL, Table 2): 11%
- Toxicities ≥ Grade 3: Asthenia/Fatigue ([1]; r/r PTCL, Table 2): 5%
- Toxicities ≥ Grade 3: Infection ([1]; r/r PTCL, Table 2): 8.5%^
- Toxicities ≥ Grade 3: Pyrexia ([1]; r/r PTCL, Table 2): 2%
- Toxicities ≥ Grade 3: Thrombocytopenia ([1]; r/r PTCL, Table 2): 7%
- ORR [1]: ORR: 26%
- ORR ([1]; listed as belinostat): approximately 25%
- CR [1]: (11% CR)
- DOR [1]: DOR: 8.4 months

Compound: NC(=O)c1cnc(N[C@@H]2CCCC[C@@H]2N)nc1Nc1cccc(-n2nccn2)c1 [PRT062607, reference compound]
- IL-4/CD40L induced Mcl-1 and Bcl-XL expression (Primary CLL cells): significantly reduced

Compound: C#CCC(Cc1cnc2nc(N)nc(N)c2n1)c1ccc(C(=O)N[C@@H](CCC(=O)O)C(=O)O)cc1 (some centres unmarked) [Pralatrexate]
- Grade 3/4 AEs: Anemia ([1]; Table 1): Anemia: 17%
- Grade 3/4 AEs: Fatigue ([1]; Table 1): Fatigue: 7%
- Grade 3/4 AEs: Mucositis ([1]; Table 1): Mucositis: 21%
- Grade 3/4 AEs: Neutropenia ([1]; Table 1): Neutropenia: 20%
- Grade 3/4 AEs: Thrombocytopenia ([1]; Table 1): Thrombocytopenia: 33%
- Toxicities ≥ Grade 3: Anemia ([1]; r/r PTCL, Table 2): 17%
- Toxicities ≥ Grade 3: Asthenia/Fatigue ([1]; r/r PTCL, Table 2): 8%
- Toxicities ≥ Grade 3: Leukopenia ([1]; r/r PTCL, Table 2): 7%
- Toxicities ≥ Grade 3: Mucositis ([1]; r/r PTCL, Table 2): 23%
- Toxicities ≥ Grade 3: Neutropenia ([1]; r/r PTCL, Table 2): 20%
- Toxicities ≥ Grade 3: Pyrexia ([1]; r/r PTCL, Table 2): 2%
- Toxicities ≥ Grade 3: Sepsis ([1]; r/r PTCL, Table 2): 5%
- Toxicities ≥ Grade 3: Thrombocytopenia ([1]; r/r PTCL, Table 2): 33%
- ORR [1]: ORR: 27%
- ORR ([1]; listed as pralatrexate): approximately 25%
- CR [1]: (6% CR)
- DOR [1]: DOR: 9.4 months

Compound: C/C=C1\NC(=O)[C@H]2CSSCC/C=C/[C@H](CC(=O)N[C@H](C(C)C)C(=O)N2)OC(=O)[C@H](C(C)C)NC1=O [Romidepsin]
- Grade 3/4 AEs: Fatigue ([1]; Table 1): Fatigue: 13%
- Grade 3/4 AEs: Nausea ([1]; Table 1): Nausea: 4%
- Grade 3/4 AEs: Thrombocytopenia ([1]; Table 1): Thrombocytopenia: 21%
- Toxicities ≥ Grade 3: Anemia ([1]; r/r PTCL, Table 2): 11-28%
- Toxicities ≥ Grade 3: Asthenia/Fatigue ([1]; r/r PTCL, Table 2): 8-19%
- Toxicities ≥ Grade 3: Infection ([1]; r/r PTCL, Table 2): 19%
- Toxicities ≥ Grade 3: Leukopenia ([1]; r/r PTCL, Table 2): 6-45%
- Toxicities ≥ Grade 3: Neutropenia ([1]; r/r PTCL, Table 2): 20-47%
- Toxicities ≥ Grade 3: Pyrexia ([1]; r/r PTCL, Table 2): 6-17%
- Toxicities ≥ Grade 3: Sepsis ([1]; r/r PTCL, Table 2): 5%
- Toxicities ≥ Grade 3: Thrombocytopenia ([1]; r/r PTCL, Table 2): 24-36%

Compound: Cc1c(-c2c(-c3ccc(F)o3)sc3ncnc(O[C@H](Cc4ccccc4OCc4ccnn4CC(F)(F)F)C(=O)O)c23)ccc(OCCN2CCN(C)CC2)c1Cl [S63845, reference compound]
- synergy with BCR kinase inhibitors including cerdulatinib, CLL cell death (Primary CLL cells; CLL cells): synergized

Compound: c1cn2cc(-c3ccc4cn[nH]c4c3)nc(Nc3ccc(N4CCOCC4)cc3)c2n1 [entospletinib, reference compound]
- IL-4/CD40L induced Mcl-1 and Bcl-XL expression (Primary CLL cells): significantly reduced

Compound: CC[C@H](Nc1ncnc2[nH]cnc12)c1nc2cccc(F)c2c(=O)n1-c1ccccc1 [idelalisib, reference compound]
- IL-4/CD40L induced Mcl-1 and Bcl-XL expression (Primary CLL cells): significantly reduced

Compound: Brentuximab
- Grade 3/4 AEs: Neutropenia ([1]; Table 1): Neutropenia: 21%
- Grade 3/4 AEs: Peripheral sensory neuropathy ([1]; Table 1): Peripheral sensory neuropathy: 10%
- Grade 3/4 AEs: Thrombocytopenia ([1]; Table 1): Thrombocytopenia: 10%
- Toxicities ≥ Grade 3: Anemia ([1]; r/r PTCL, Table 2): 2%
- Toxicities ≥ Grade 3: Asthenia/Fatigue ([1]; r/r PTCL, Table 2): 4%
- Toxicities ≥ Grade 3: Diarrhea/Colitis ([1]; r/r PTCL, Table 2): 3%
- Toxicities ≥ Grade 3: Neutropenia ([1]; r/r PTCL, Table 2): 21%
- Toxicities ≥ Grade 3: Pyrexia ([1]; r/r PTCL, Table 2): 2%
- Toxicities ≥ Grade 3: Thrombocytopenia ([1]; r/r PTCL, Table 2): 10%
- ORR [1]: ORR: 86%
- CR [1]: (57% CR)
- DOR [1]: DOR: 12.6 months

From US11266645B2, “Methods for treating lymphoma” (Alexion Pharmaceuticals, Inc., priority 2018, dated 2022)
